# Values joined by “and” are separate entries in the source; they are usually repeats but may differ in a detail not shown here. Identical values can stand only once. Like-named read-outs stand apart in the source and are kept apart here.
# Tests used:
# [1] = tested on: IMR-32; assay: Peptide binding and internalization assay; parameters: species or system human
# Protocol: Cell lines were obtained from the ATCC (IMR-32 and SKNSH) or from Ohio State University (Columbus, Ohio) (SK-R2). All cells lines were maintained in 5% CO2 at 37°C in media defined by the suppliers of the cell lines.
# Cells were harvested, counted with a hemocytometer, and resuspended in binding buffer (Minimum Essential Medium (MEM), 10 mM Hepes, 0.01% BSA). A standard assay used 500,000 cells in 1 ml of binding buffer. Radioactive ligand alone (500,000 cpm), or in combination with at least 1,000-fold molar excess (10^-6 M) non-radioactive compound (to calculate specific binding), was added to a final volume of 1 ml. At the termination of the experiment, the incubation medium was removed, the cells were rinsed twice with Hanks balanced salt solution (HBSS), and the radioactivity in the cells determined using a gamma counter. This level of radioactivity represents total binding, which includes both membrane-bound and internalized fractions. Specific binding was determined by calculating the difference in the levels of measured radioactivity without the unlabeled competitor minus the radioactivity with the unlabeled competitor.
# To differentiate between membrane and intracellular binding, cells were subsequently incubated for 10 min at 4°C with acidified HBSS (pH=4-5), rinsed in HBSS, and the radioactivity again determined using the gamma counter. Since the acid wash preferentially released the radioactive ligand from the external surface of the cell, remaining radioactivity was attributed to internalized fractions. Membrane-associated binding was then calculated as the difference between the total binding and internalized fractions.
# The times for ligand binding and internalization were analyzed using the standard assay methods described above. […] The first series of experiments used IMR-32 cells that were exposed to a radioligand for varying periods of time (up to 72 hr). The incubation media was replaced at least every 48 hr.
# The assay methods were as described in Example 2.
# [2] = tested on: tumor in the left side of the neck
# Protocol: During and after each administration of the last eight doses, a tumor in the left side of the neck was monitored for radioligand uptake with an ion chamber survey meter, a Victoreen 450P ion chamber, which measures external gamma dose rates. Administration of the initial seven doses were by bolus injection. The last three doses were delivered by infusion with various activities of radioligand.
# The external gamma dose rates from radioligand accumulation in the neck tumor area were measured immediately and 24 hr after injection.
# Four months after the final bolus dose, the first dose by infusion ("Infusion 1") was administered. A dose equivalent to the previous bolus dose (175.9 mCi) was given, but the radioligand was administered by infusion over 72 hr at a constant rate of 2.5 mCi/hr.
# One month later, in "Infusion 2," the total dose was increased to 389.2 mCi. By infusion, 189.8 mCi of the radioligand was given over the first 24 hr, 108.6 mCi over the second 24 hr, and 90.8 mCi over the third 24 hr. For each 24 hr period, the infusion rate was kept constant.
# One month later, a third dose was administered by infusion ("Infusion 3"). A dose of 301 mCi was infused the first 24 hr period. In two subsequent 24 hr periods, 25 and 21 mCi were infused.
# [3] = tested on: DNA of SKNSH cells; assay: Binding to nuclear DNA (DNA extraction, gamma counting); assay type: cell-based, human; details: for Radioligand (CPM ± SD), Non-Decay Corrected: 100 µg DNA, SKNSH (SST-2 negative); for % Specifically Bound / CPM Specifically Bound (Difference), Non-Decay Corrected / Radioligand + Unlabeled Ligand (CPM ± SD), Non-Decay Corrected: SKNSH DNA; for Radioligand + Unlabeled Ligand (CPM ± SD), Non-Decay Corrected: + octreotide acetate
# Protocol: (§1) Cells were removed from the culture surface using a sterile rubber policeman. The suspended cells were washed three times in cold Dulbecco's phosphate buffered saline and processed through a DNA extraction procedure according to the vendor's directions (GenomicPrep® cells and Tissue DNA Isolation Kit, Pharmacia Biotech, Piscataway, NJ). The cells were incubated in the Cell Lysis Solution of the DNA isolation kit at 37°C for 10 minutes. Next, 3 µl of the Rnase Solution was added to the cell lysate, followed by thorough mixing and incubation at 37°C for 1 hour. The samples were cooled to room temperature, and 200 µl of the Protein Precipitation Solution were added. Following vortexing, the contents of each tube were centrifuged at 14,000 x g for 1 min, and the DNA pellet was washed with 70% ethanol. Following drying the DNA was hydrated in a DNA Hydration Solution, and the concentration of DNA determined by spectrometry at 260 nm. One hundred microgram (100 µg) quantities of each treatment were transferred to radioactive counting vials, and the amount of radioactivity associated with each was measured in a Beckman 5500 gamma counter. The data, as presented in Table 6, were obtained as counts per minute (cpm). The differences between radioactivity measured in cells incubated solely with radioligand and in cells incubated with both radioligand and unlabeled ligand were statistically analyzed using ANOVA.
# (§2) Additionally, the DNA from each flask was divided in half, and 1 mg of DNA from each flask was treated with proteinase-K (Lite Technologies, Gaithersburg, MD) for 1 hour at 37°C. The enzyme-treated DNA was then reprecipitated with ethanol and sodium acetate, washed with cold ethanol, and redissolved in DNA hydration solution. The concentration was determined by spectrophotometry at 260 nm. One hundred microgram (100 µg) of protease-treated DNA and an equal quantity of untreated DNA were transferred to radioactive counting vials and the amount of radioactivity measured in a Beckman 5500 gamma counter, as described above. The data, as presented in Table 7 and Figure 13, were obtained as counts per minute (cpm).
# [4] = tested on: DNA of IMR-32 cells; assay: as above; assay type: cell-based, human; details: for Radioligand (CPM ± SD), Non-Decay Corrected: 100 µg DNA, IMR-32 (SST-2 positive); for % Specifically Bound / CPM Specifically Bound (Difference), Non-Decay Corrected / Radioligand (CPM ± SD), Decay Corrected Values / SPM Specifically Bound (Difference), Decay Corrected Values / Radioligand + Unlabeled Ligand (CPM ± SD), Decay Corrected Values / Radioligand + Unlabeled Ligand (CPM ± SD), Non-Decay Corrected: IMR-32 DNA; for Radioligand + Unlabeled Ligand (CPM ± SD), Decay Corrected Values / Radioligand + Unlabeled Ligand (CPM ± SD), Non-Decay Corrected: + octreotide acetate
# Protocol: as §1, §2
# [5] = IMR-32, competitor octreotide acetate
# [6] = IMR-32 cells exposed to radioligand up to 72 hr
# [7] = 100µg DNA, mean of three experiments
# [8] = 100µg DNA, proteinase-K, mean of three experiments
# [9] = 100µg DNA, single replicate experiments
substance,measurement,setting,value
(^111In-DTPA-D-Phe^1)-octreotide [^111In-pentetreotide],"Total Binding (CPM ± SD), MEMBRANE","[1]; IMR-32, 1 CPM/cell","2,373 ± 417 CPM"
same,"Total Binding (CPM ± SD), TOTAL","[1]; IMR-32, 1 CPM/cell","4,780 ± 928 CPM"
same,"Total Binding (CPM ± SD), INTRACELLULAR","[1]; IMR-32, 1 CPM/cell, after acid wash","2,408 ± 51 CPM"
same,Kd,"[1]; IMR-32, Scatchard plot analysis, read-out: Kd (apparent dissociation constant)",4 nM
same,"Specific Binding (CPM), INTRACELLULAR",[1]; [5],1.536 CPM
same,"Specific Binding (CPM), MEMBRANE",[1]; [5],"2,372 CPM"
same,"Specific Binding (CPM), TOTAL",[1]; [5],"3,908 CPM"
same,fractions of total radioactivity incorporated into the cell,[1]; [6],40-75%
same,time of maximal binding,[1]; [6],48 to 72 h
same,infusion ratio relative to the bolus ratio,[2]; Infusion 1,3 fold
same,infusion ratio relative to the bolus ratio,[2]; Infusion 2,4 fold
same,infusion ratio relative to the bolus ratio,[2]; Infusion 3,5 fold
same,highest ratio relative to the highest ratio from the bolus injection,"[2]; Infusion Dose 1, after the first 24 hr infusion",almost five times higher
same,tumor foci identifiable by gamma scintigraphy,"[2]; Infusion Dose 3, gamma camera scintigraphy",still identifiable by gamma scintigraphy thirteen days after completion of the last infusion dose
same,"Radioligand (CPM ± SD), Non-Decay Corrected",[3]; 60 minutes,85 ± 8 CPM
same,"Radioligand (CPM ± SD), Non-Decay Corrected",[3]; 4320 minutes,232 ± 10 CPM
same,"Radioligand (CPM ± SD), Non-Decay Corrected",[3]; […],87 ± 1 CPM
same,"Binding to Cellular DNA, SKNSH CELLS Untreated (CPM), Mean + S.D.",[3]; [7],285 ± 56 CPM
same,"Binding to Cellular DNA, SKNSH CELLS Protease Treated (CPM), Mean + S.D.",[3]; [8],247 ± 149 CPM
same,"Binding to Cellular DNA, SKNSH CELLS Untreated (CPM)",[3]; [9],316 CPM and 319 CPM
same,% Specifically Bound,[3]; 60 minutes,0%
same,"CPM Specifically Bound (Difference), Non-Decay Corrected",[3]; 60 minutes,-6 CPM
same,"CPM Specifically Bound (Difference), Non-Decay Corrected",[3]; 4320 minutes,+58 CPM
same,"Radioligand + Unlabeled Ligand (CPM ± SD), Non-Decay Corrected",[3]; 60 minutes,91 ± 25 CPM
same,"Radioligand + Unlabeled Ligand (CPM ± SD), Non-Decay Corrected",[3]; 4320 minutes,174 ± 41 CPM
same,% Specifically Bound,[3]; […],8%
same,"CPM Specifically Bound (Difference), Non-Decay Corrected",[3]; […],+7 CPM
same,"Radioligand (CPM ± SD), Non-Decay Corrected",[4]; 30 mins,128 ± 28 CPM
same,"Radioligand (CPM ± SD), Non-Decay Corrected",[4]; 60 mins,152 ± 165 CPM
same,"Radioligand (CPM ± SD), Non-Decay Corrected",[4]; 180 mins,291 ± 44 CPM
same,"Radioligand (CPM ± SD), Non-Decay Corrected",[4]; 1440 mins,264 ± 104 CPM
same,"Radioligand (CPM ± SD), Non-Decay Corrected",[4]; 2880 mins,624 ± 59 CPM
same,"Binding to Cellular DNA, IMR-32 CELLS Untreated (CPM), Mean + S.D.",[4]; [7],"12,066 ± 2273 CPM"
same,"Binding to Cellular DNA, IMR-32 CELLS Protease Treated (CPM)","[4]; 100µg DNA, proteinase-K 1 hour 37°C, single replicate experiments","10,276 CPM and 9.564 CPM and 12,648 CPM"
same,"Binding to Cellular DNA, IMR-32 CELLS Protease Treated (CPM), Mean + S.D.",[4]; [8],"10,829 ± 1614 CPM"
same,"Binding to Cellular DNA, IMR-32 CELLS Untreated (CPM)",[4]; [9],"11,512 CPM and 10,122 CPM and 14,566 CPM"
same,total bound CPM removed by the protease treatment,"[4]; DNA of IMR-32 cells, proteinase-K",10-13%
same,% Specifically Bound,[4]; 30 mins,35%
same,"CPM Specifically Bound (Difference), Non-Decay Corrected",[4]; 30 mins,45 CPM
same,"Radioligand (CPM ± SD), Decay Corrected Values",[4]; 30 mins,128 ± 28 CPM
same,"SPM Specifically Bound (Difference), Decay Corrected Values",[4]; 30 mins,45 CPM
same,% Specifically Bound,[4]; 60 mins,45%
same,"CPM Specifically Bound (Difference), Non-Decay Corrected",[4]; 60 mins,69 CPM
same,"Radioligand (CPM ± SD), Decay Corrected Values",[4]; 60 mins,157 ± 165 CPM
same,"SPM Specifically Bound (Difference), Decay Corrected Values",[4]; 60 mins,69 CPM
same,% Specifically Bound,[4]; 180 mins,43%
same,"CPM Specifically Bound (Difference), Non-Decay Corrected",[4]; 180 mins,126 CPM
same,"Radioligand (CPM ± SD), Decay Corrected Values",[4]; 180 mins,291 ± 44 CPM
same,"SPM Specifically Bound (Difference), Decay Corrected Values",[4]; 180 mins,126 CPM
same,% Specifically Bound,[4]; 1440 mins,67%
same,"CPM Specifically Bound (Difference), Non-Decay Corrected",[4]; 1440 mins,177 CPM
same,"Radioligand (CPM ± SD), Decay Corrected Values",[4]; 1440 mins,338 ± 133 CPM
same,"SPM Specifically Bound (Difference), Decay Corrected Values",[4]; 1440 mins,226 CPM
same,% Specifically Bound,[4]; 2880 mins,67%
same,"CPM Specifically Bound (Difference), Non-Decay Corrected",[4]; 2880 mins,421 CPM
same,"Radioligand (CPM ± SD), Decay Corrected Values",[4]; 2880 mins,1023 ± 97 CPM
same,"SPM Specifically Bound (Difference), Decay Corrected Values",[4]; 2880 mins,690 CPM
same,"Radioligand + Unlabeled Ligand (CPM ± SD), Decay Corrected Values",[4]; 30 mins,83 ± 12 CPM
same,"Radioligand + Unlabeled Ligand (CPM ± SD), Non-Decay Corrected",[4]; 30 mins,83 ± 12 CPM
same,"Radioligand + Unlabeled Ligand (CPM ± SD), Decay Corrected Values",[4]; 60 mins,83 ± 1 CPM
same,"Radioligand + Unlabeled Ligand (CPM ± SD), Non-Decay Corrected",[4]; 60 mins,83 ± 1 CPM
same,"Radioligand + Unlabeled Ligand (CPM ± SD), Decay Corrected Values",[4]; 180 mins,165 ± 15 CPM
same,"Radioligand + Unlabeled Ligand (CPM ± SD), Non-Decay Corrected",[4]; 180 mins,165 ± 15 CPM
same,"Radioligand + Unlabeled Ligand (CPM ± SD), Decay Corrected Values",[4]; 1440 mins,112 ± 8 CPM
same,"Radioligand + Unlabeled Ligand (CPM ± SD), Non-Decay Corrected",[4]; 1440 mins,87 ± 6 CPM
same,"Radioligand + Unlabeled Ligand (CPM ± SD), Decay Corrected Values",[4]; 2880 mins,332 ± 33 CPM
same,"Radioligand + Unlabeled Ligand (CPM ± SD), Non-Decay Corrected",[4]; 2880 mins,203 ± 20 CPM
